ChEMBL document CHEMBL1909046, “DrugMatrix in vitro pharmacology data”

Tests used:
[1] = molecular target: Mitogen-activated protein kinase 14 (Homo sapiens, UniProt Q16539); design: species or system Escherichia coli;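 further: inhibition of p38alpha enzyme activity in a biochemical kinase assay, with myelin basic protein serving as substrate; in other assays of this panel Not Active means under 50% inhibition at 10 µM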
[2] = DRUGMATRIX: Phosphodiesterase PDE4 enzyme inhibition (substrate: [3H]cAMP + cAMP); settings: u-937, Not Active = under 50% inhibition at 10 µM
[3] = molecular target: C-C chemokine receptor type 2 (Homo sapiens, UniProt P41597); type: cell membranes, CHO-K1, Membrane; settings: cho-k1; further: in other assays of this panel Not Active means under 50% inhibition at 10 µM
[4] = DRUGMATRIX: Imidazoline I2, Central radioligand binding (ligand: [3H] Idazoxan); type: cell membranes, Rattus norvegicus, Wistar, Cerebral cortex, Membrane; settings: Not Active = under 50% inhibition at 10 µM
[5] = DRUGMATRIX: Calcium Channel Type L, Benzothiazepine radioligand binding (ligand: [3H] Diltiazem); type: cell membranes, Rattus norvegicus, Wistar, Brain, Membrane; settings: Not Active = under 50% inhibition at 10 µM

Chain of C-C chemokine receptor type 2 (P41597 whole entry): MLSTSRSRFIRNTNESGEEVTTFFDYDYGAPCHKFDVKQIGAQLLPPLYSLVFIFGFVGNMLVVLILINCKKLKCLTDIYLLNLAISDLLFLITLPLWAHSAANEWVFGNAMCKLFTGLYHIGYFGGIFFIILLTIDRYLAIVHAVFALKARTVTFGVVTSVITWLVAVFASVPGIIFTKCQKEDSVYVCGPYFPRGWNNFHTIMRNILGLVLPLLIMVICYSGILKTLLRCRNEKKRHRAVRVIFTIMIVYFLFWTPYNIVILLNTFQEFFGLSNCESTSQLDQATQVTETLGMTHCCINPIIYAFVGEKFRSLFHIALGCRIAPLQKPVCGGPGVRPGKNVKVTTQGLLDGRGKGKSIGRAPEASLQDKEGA
Chain of Mitogen-activated protein kinase 14 (Q16539 whole entry): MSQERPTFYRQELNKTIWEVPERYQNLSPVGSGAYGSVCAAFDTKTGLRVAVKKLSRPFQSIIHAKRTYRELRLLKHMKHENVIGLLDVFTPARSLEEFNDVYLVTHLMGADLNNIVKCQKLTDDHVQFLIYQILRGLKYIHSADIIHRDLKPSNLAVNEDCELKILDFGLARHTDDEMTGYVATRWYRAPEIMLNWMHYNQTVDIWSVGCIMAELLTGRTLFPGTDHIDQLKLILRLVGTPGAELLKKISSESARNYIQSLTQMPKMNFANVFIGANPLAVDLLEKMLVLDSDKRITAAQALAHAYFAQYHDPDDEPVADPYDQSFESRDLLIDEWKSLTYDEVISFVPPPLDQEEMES

## O=C(OC[C@H]1O[C@@H](OC(=O)c2cc(O)c(O)c(OC(=O)c3cc(O)c(O)c(O)c3)c2)[C@H](OC(=O)c2cc(O)c(O)c(OC(=O)c3cc(O)c(O)c(O)c3)c2)[C@@H](OC(=O)c2cc(O)c(O)c(OC(=O)c3cc(O)c(O)c(O)c3)c2)[C@@H]1OC(=O)c1cc(O)c(O)c(OC(=O)c2cc(O)c(O)c(O)c2)c1)c1cc(O)c(O)c(OC(=O)c2cc(O)c(O)c(O)c2)c1 [TANNIC ACID]
[1]; read-out: IC50
  IC50: 375 nM
[2]; read-out: IC50
  IC50: 1040 nM
[3]
  IC50: Not Active
[4]
  IC50: Not Active
  Ki: Not Active
[5]
  IC50: Not Active
  Ki: Not Active

## Oc1ccc(/C=C/c2cc(O)cc(O)c2)cc1 [RESVERATROL]
[1]
  IC50: Not Active
[2]
  IC50: Not Active
  Ki: Not Active
[3]
  IC50: Not Active
[4]
  IC50: Not Active
  Ki: Not Active
[5]
  IC50: Not Active
  Ki: Not Active

## CC[C@@]1(O)C(=O)OCc2c1cc1n(c2=O)Cc2cc3c(CN(C)C)c(O)ccc3nc2-1 [TOPOTECAN]
[1]
  IC50: Not Active
[2]
  IC50: Not Active
  Ki: Not Active
[3]
  IC50: Not Active
[4]
  IC50: Not Active
  Ki: Not Active
[5]
  IC50: Not Active
  Ki: Not Active

## C=CCc1ccc2c(c1)OCO2 [SAFROLE]
[1]
  IC50: Not Active
[2]
  IC50: Not Active
  Ki: Not Active
[3]
  IC50: Not Active
[4]
  IC50: Not Active
  Ki: Not Active
[5]
  IC50: Not Active
  Ki: Not Active

## C1CCN2C[C@@H]3C[C@@H](CN4CCCC[C@@H]34)[C@H]2C1 [SPARTEINE]
[1]
  IC50: Not Active
[2]
  IC50: Not Active
  Ki: Not Active
[3]
  IC50: Not Active
[4]
  IC50: Not Active
  Ki: Not Active
[5]
  IC50: Not Active
  Ki: Not Active

## CC[C@H](C)C(=O)O[C@H]1CCC=C2C=C[C@H](C)[C@H](CC[C@@H]3C[C@@H](O)CC(=O)O3)[C@H]21 [MEVASTATIN]
[1]
  IC50: Not Active
[2]
  IC50: Not Active
  Ki: Not Active
[3]
  IC50: Not Active
[4]
  IC50: Not Active
  Ki: Not Active
[5]
  IC50: Not Active
  Ki: Not Active

## CS(=O)(=O)c1ccc(C2=C(c3ccccc3)C(=O)OC2)cc1 [ROFECOXIB]
[1]
  IC50: Not Active
[2]
  IC50: Not Active
  Ki: Not Active
[3]
  IC50: Not Active
[4]
  IC50: Not Active
  Ki: Not Active
[5]
  IC50: Not Active
  Ki: Not Active

## Cc1cn([C@H]2C=C[C@@H](CO)O2)c(=O)[nH]c1=O [STAVUDINE]
[1]
  IC50: Not Active
[2]
  IC50: Not Active
  Ki: Not Active
[3]
  IC50: Not Active
[4]
  IC50: Not Active
  Ki: Not Active
[5]
  IC50: Not Active
  Ki: Not Active

## Nc1nc(N)c2nc(-c3ccccc3)c(N)nc2n1
[1]
  IC50: Not Active
[2]
  IC50: Not Active
  Ki: Not Active
[3]
  IC50: Not Active
[4]
  IC50: Not Active
  Ki: Not Active
[5]
  IC50: Not Active
  Ki: Not Active

## Cc1[nH]c(=O)c(C#N)cc1-c1ccncc1 [MILRINONE]
[1]
  IC50: Not Active
[2]
  IC50: Not Active
  Ki: Not Active
[3]
  IC50: Not Active
[4]
  IC50: Not Active
  Ki: Not Active
[5]
  IC50: Not Active
  Ki: Not Active

## C[C@]12CCC(=O)C[C@@H]1CC[C@@H]1[C@@H]2CC[C@]2(C)[C@@H](O)CC[C@@H]12 [STANOLONE]
[1]
  IC50: Not Active
[2]
  IC50: Not Active
  Ki: Not Active
[3]
  IC50: Not Active
[4]
  IC50: Not Active
  Ki: Not Active
[5]
  IC50: Not Active
  Ki: Not Active

## CC1(C)[C@H](C(=O)O)N2C(=O)C[C@H]2S1(=O)=O [SULBACTAM]
[1]
  IC50: Not Active
[2]
  IC50: Not Active
  Ki: Not Active
[3]
  IC50: Not Active
[4]
  IC50: Not Active
  Ki: Not Active
[5]
  IC50: Not Active
  Ki: Not Active

## CCOC(=O)C1=C(C)NC(C)=C(C(=O)OCC)C1c1ccccc1/C=C/C(=O)OC(C)(C)C [LACIDIPINE]
[1]
  IC50: Not Active
[2]
  IC50: Not Active
  Ki: Not Active
[3]
  IC50: Not Active
[4]
  IC50: Not Active
  Ki: Not Active
[5]; read-out: IC50
  IC50: 5.45 nM
[5]; read-out: Ki
  Ki: 4.84 nM

## CC(N)C12CC3CC(CC(C3)C1)C2 (centres undefined) [RIMANTADINE]
[1]
  IC50: Not Active
[2]
  IC50: Not Active
  Ki: Not Active
[3]
  IC50: Not Active
[4]
  IC50: Not Active
  Ki: Not Active
[5]
  IC50: Not Active
  Ki: Not Active

## CO[C@@]12[C@H](COC(N)=O)C3=C(C(=O)C(C)=C(N)C3=O)N1C[C@@H]1N[C@@H]12 [MITOMYCIN]
[1]
  IC50: Not Active
[2]
  IC50: Not Active
  Ki: Not Active
[3]
  IC50: Not Active
[4]
  IC50: Not Active
  Ki: Not Active
[5]
  IC50: Not Active
  Ki: Not Active
